From PubChem BioAssay AID2060511 (Molecular Pharmacology Branch, DTP, NCI, 2025)

Tested on: 422866-222-R5-J1-PDC spheroids with HUVEC/MSC, viability
Experiment: Anticancer human tumor 422866-222-R5-J1-PDC patient-derived pancreatic adenocarcinoma cell line growth inhibition [GQUAD]
Details: for IC50: curve of first compound; for viability, T/C: stronger effect = lower value
Source text: DNA G-quadruplex Stabilizer Agents in Combinations in Complex Spheroids
A high-throughput screen of multi-cell type tumor spheroids was designed to identify active combinations of DNA G-quadruplex stabilizer agents and targeted small molecules. Complex spheroids include a stromal component modeled by human endothelial cells (HUVEC) and fibroblasts modeled by human mesenchymal stem cells (MSCs). The concentration ranges selected for each drug and investigational agent were based upon clinically achievable concentrations if the clinical Cmax of the agent was known.
Compounds. The drugs and investigational agents: pidnarulex (CX-5461; NSC782164), APTO-253 (NSC789042), BRACO-19 (NSC847499), peposertib (NSC802822), ceralasertib (NSC780249), elimusertib (NSC800525), camonsertib (NSC841442), AZD-1390 (NSC803789), olaparib (NSC753686), talazoparib (NSC767125), ART-558 (NSC835418), sotorasib (NSC818433), MRTX-1133 (NSC836407), SN-38 (NSC673596), topotecan (NSC609699), etoposide (NSC141540), doxorubicin (NSC123127), gemcitabine (NSC613327), 5-fluorouracil (NSC19893), paclitaxel (NSC125973), vemurafenib (NSC761431), panobinostat (NSC761190), R-306465 (JNJ-16241199; NSC773264), adavosertib (NSC754352), TP-3654 (NSC805149), carboplatin (NSC241240), KSQ-4279 (NSC840948), and staurosporine (NSC755774) were obtained from the National Cancer Institute (NCI) Developmental Therapeutics Program Chemical Repository (34). The FDA-approved anticancer drug set is available from the NCI Developmental Therapeutics Program. […] The stock solutions were prepared in dimethyl sulfoxide (DMSO, Sigma-Aldrich, St. Louis, MO, cat. D2650) at 800-fold the tested concentration and stored at -70 degrees C prior to their use. All drugs and investigational agents were tested over a range starting from a high concentration at or near the clinical Cmax and decreasing in half-log increments. If the clinical Cmax for an agent had not been determined, the highest concentration tested was 10 microM.
2.3 Cell Culture. All cells were maintained in an incubator at 37 degrees C and 5% CO2 with 95% humidity. The PDC lines were cultured according to standard operating procedures established by the NCI PDMR. All PDCs were thawed and cultured in Matrigel-coated flasks prepared with a working solution of 1X Ham's F-12 nutrient mix, without supplementation (Invitrogen, cat. 11765054), 100 U/mL penicillin-streptomycin (Invitrogen, cat. 15140122), and 2.5% Matrigel (Corning Inc., cat. 354248) for the first three passages. The 857933-349-R-J2-PDC line was cultured in 6C/Colon 1B media, which includes advanced DMEM/F-12 (Thermo Fisher Scientific, cat. 12634028), 10 mM HEPES (Thermo Fisher Scientific, cat. 15630080), 1X GlutaMAX supplement (Thermo Fisher Scientific, cat. 35050061), 0.1 mg/mL primocin (InvivoGen, cat. ant-pm-2), 10% defined fetal bovine serum, heat inactivated (HyClone Laboratories Inc., cat. SH30070.03HI), 50% L-WRN conditioned media (ATCC, cat. CRL-3276), 1.25 mM N-Acetyl-L-cysteine (Sigma-Aldrich, cat. A9165), 10 mM nicotinamide (Sigma-Aldrich, cat. N0636), 1X B-27 supplement (Thermo Fisher Scientific, cat. 17504044), 1X N-2 supplement (Thermo Fisher Scientific, cat. 17502048), 10 microM Y-27632 dihydrochloride (Tocris Bioscience, cat. 1254), and 50 ng/mL human EGF recombinant protein (Thermo Fisher Scientific, cat. PHG0311). The 485176-168-R4-J1-PDC line was cultured in Panc media, which includes all 6C/Colon 1B media components plus 100 ng/mL human FGF-10 (Thermo Fisher Scientific, cat. 100-26), 500 nM SB-431542 (Selleckchem, cat. S1067), and gastrin (Tocris, cat. 3006).
[…]

[1] = second compound 0.0316 µM, first compound 0.0316 µM
[2] = second compound 0.0316 µM, first compound 0.1 µM
[3] = second compound 0.0316 µM, first compound 0.316 µM
[4] = second compound 0.0316 µM, first compound 1 µM
[5] = second compound 0.0316 µM, first compound 3.16 µM
[6] = second compound 0.0316 µM, first compound 10 µM
[7] = second compound 0.1 µM, first compound 0.0316 µM
[8] = second compound 0.1 µM, first compound 0.1 µM
[9] = second compound 0.1 µM, first compound 0.316 µM
[10] = second compound 0.1 µM, first compound 1 µM
[11] = second compound 0.1 µM, first compound 3.16 µM
[12] = second compound 0.1 µM, first compound 10 µM
[13] = second compound 0.316 µM, first compound 0.0316 µM
[14] = second compound 0.316 µM, first compound 0.1 µM
[15] = second compound 0.316 µM, first compound 0.316 µM
[16] = second compound 0.316 µM, first compound 1 µM
[17] = second compound 0.316 µM, first compound 3.16 µM
[18] = second compound 0.316 µM, first compound 10 µM
[19] = second compound 1 µM, first compound 0.0316 µM
[20] = second compound 1 µM, first compound 0.1 µM
[21] = second compound 1 µM, first compound 0.316 µM
[22] = second compound 1 µM, first compound 1 µM
[23] = second compound 1 µM, first compound 3.16 µM
[24] = second compound 1 µM, first compound 10 µM
[25] = second compound 3.16 µM, first compound 0.0316 µM
[26] = second compound 3.16 µM, first compound 0.1 µM
[27] = second compound 3.16 µM, first compound 0.316 µM
[28] = second compound 3.16 µM, first compound 1 µM
[29] = second compound 3.16 µM, first compound 3.16 µM
[30] = second compound 3.16 µM, first compound 10 µM
[31] = second compound 10 µM, first compound 0.0316 µM
[32] = second compound 10 µM, first compound 0.1 µM
[33] = second compound 10 µM, first compound 0.316 µM
[34] = second compound 10 µM, first compound 1 µM
[35] = second compound 10 µM, first compound 3.16 µM
[36] = second compound 10 µM, first compound 10 µM
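Further: spheroids exposed to compounds for seven days before reading.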
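Wherever viability, T/C is given: percent viability relative to DMSO vehicle control taken as 100%.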

CC(C)n1c(=O)n(C)c2cnc3cc(F)c(-c4ccc(OCCCN5CCCCC5)nc4)cc3c21 + CN(C)c1ccc(Nc2c3ccc(NC(=O)CCN4CCCC4)cc3nc3cc(NC(=O)CCN4CCCC4)ccc23)cc1
IC50 (second compound 0.0316 µM): > 10 µM | IC50 (second compound 0.1 µM): > 10 µM | IC50 (second compound 0.316 µM): > 10 µM | IC50 (second compound 1 µM): > 10 µM | IC50 (second compound 3.16 µM): > 10 µM | IC50 (second compound 10 µM): > 10 µM | viability, T/C [1]: 99.8% | viability, T/C [2]: 99% | viability, T/C [3]: 93.5% | viability, T/C [4]: 96% | viability, T/C [5]: 103% | viability, T/C [6]: 67.1% | viability, T/C [7]: 100% | viability, T/C [8]: 78.5% | viability, T/C [9]: 101% | viability, T/C [10]: 90.5% | viability, T/C [11]: 90.7% | viability, T/C [12]: 70% | viability, T/C [13]: 103% | viability, T/C [14]: 95.4% | viability, T/C [15]: 92.4% | viability, T/C [16]: 81.2% | viability, T/C [17]: 88.8% | viability, T/C [18]: 70.2% | viability, T/C [19]: 87.2% | viability, T/C [20]: 92.5% | viability, T/C [21]: 87.9% | viability, T/C [22]: 98.6% | viability, T/C [23]: 83.8% | viability, T/C [24]: 55.1% | viability, T/C [25]: 82.8% | viability, T/C [26]: 80.1% | viability, T/C [27]: 86.8% | viability, T/C [28]: 88.9% | viability, T/C [29]: 81.6% | viability, T/C [30]: 61.6% | viability, T/C [31]: 73.8% | viability, T/C [32]: 80.9% | viability, T/C [33]: 80.4% | viability, T/C [34]: 64.3% | viability, T/C [35]: 68.5% | viability, T/C [36]: 51.7%

CC1COCCN1c1cc(-c2ccnn2C)c2ccnc(-c3ccn[nH]3)c2n1 (centres undefined) + CN(C)c1ccc(Nc2c3ccc(NC(=O)CCN4CCCC4)cc3nc3cc(NC(=O)CCN4CCCC4)ccc23)cc1
IC50 (second compound 0.0316 µM): > 10 µM | IC50 (second compound 0.1 µM): > 10 µM | IC50 (second compound 0.316 µM): > 10 µM | IC50 (second compound 1 µM): 0.0316 µM | IC50 (second compound 3.16 µM): 0.0316 µM | IC50 (second compound 10 µM): 0.0316 µM | viability, T/C [1]: 88.7% | viability, T/C [2]: 60.3% | viability, T/C [3]: 53.2% | viability, T/C [4]: 46.5% | viability, T/C [5]: 73.2% | viability, T/C [6]: 92.6% | viability, T/C [7]: 92.4% | viability, T/C [8]: 62.7% | viability, T/C [9]: 46.2% | viability, T/C [10]: 36.2% | viability, T/C [11]: 86.8% | viability, T/C [12]: 84.2% | viability, T/C [13]: 86.8% | viability, T/C [14]: 70.2% | viability, T/C [15]: 46.7% | viability, T/C [16]: 39.4% | viability, T/C [17]: 86.9% | viability, T/C [18]: 89.3% | viability, T/C [19]: 73% | viability, T/C [20]: 52% | viability, T/C [21]: 37.2% | viability, T/C [22]: 39.2% | viability, T/C [23]: 91.2% | viability, T/C [24]: 71.5% | viability, T/C [25]: 79% | viability, T/C [26]: 54.8% | viability, T/C [27]: 38% | viability, T/C [28]: 39.7% | viability, T/C [29]: 81.2% | viability, T/C [30]: 94.6% | viability, T/C [31]: 76.8% | viability, T/C [32]: 52.7% | viability, T/C [33]: 40.2% | viability, T/C [34]: 41.4% | viability, T/C [35]: 83.9% | viability, T/C [36]: 83.8%
